Legend:
[1] = tested on: MC38 tumor cells; experiment: Anti-tumor efficacy in MC38 model in C57BL/6 mouse (Example 11); assay type: in vivo; settings: C57BL/6, MC38, 2 μmol/kg S.C. QD
Method: (§1) Animal species: Mus musculus; Strain: C57BL/6; Age: 6-8 weeks; Sex: female. The MC38 tumor cells were maintained in vitro in DMEM medium supplemented with 10% FBS at 37° C., 5% CO2. The cells growing in an exponential growth phase were harvested and counted for tumor inoculation. The culture MC38 were harvested, re-suspended in PBS containing 50% Matrigel at a density of 1×10^7 cells/mL. Each mouse was inoculated subcutaneously in the right flank region with 1×10^6 cells in 0.1 mL of PBS containing 50% Matrigel for tumor development.
The treatments were started when the mean tumor size reached 82-129 mm^3 (average tumor size 102 mm^3). Each group contained 6 tumor bearing mice. Group 1 was treated with Vehicle (10% DMSO+90% Saline), S.C., QD.
(§2) In vivo efficacy was examined according to absolute tumor growth inhibition (TGI) and the safety was evaluated according to weight change and survival in mice.
(§3) Statistical analysis of difference in tumor volume among the groups was performed using one-way ANOVA followed by individual comparisons using Games-Howell post-hoc test (equal variance not assumed). All data was analyzed using SPSS 22.0 software.

[2] = Body weight of C57BL/6 mice bearing MC38 tumors (Example 11); assay type: in vivo, Mus musculus; settings: C57BL/6, MC38, 2 μmol/kg S.C. QD
Method: The treatments were started when the mean tumor size reached 82-129 mm^3 (average tumor size 102 mm^3). Each group contained 6 tumor bearing mice. Group 1 was treated with Vehicle (10% DMSO+90% Saline), S.C., QD. Group 2 was given treatments with compound 2 at 2 μmol/kg, S.C., QD. Group 3 was given treatments with compound 81 at 2 μmol/kg, S.C., QD. Group 4 was given treatments with compound 443 at 2 μmol/kg, S.C., QD. Group 5 was given treatments with compound 459 at 2 μmol/kg, S.C., QD. Group 6 was given treatments with compound 3 at 2 μmol/kg, S.C., QD.
as §2

[3] = tested on: MC38 tumor cells; experiment: Anti-tumor efficacy in MC38 model in CES1c -/- mouse (Example 10); assay type: in vivo; settings: for TV (mm^3) (Mean ± SEM) D6 / TV (mm^3) (Mean ± SEM) D9 / TV (mm^3) (Mean ± SEM) D12 / TV (mm^3) (Mean ± SEM) D15 / TV (mm^3) (Mean ± SEM) D20 / TV (mm^3) (Mean ± SEM) D23 / T/C (%) / TGI (%) / TV (mm^3) (Mean ± SEM) D26: MC38, 2 μmol/kg S.C. QD; for T/C (%) / TGI (%) / TV (mm^3) (Mean ± SEM) D26 / TV (mm^3) at D26 (Mean ± SEM): D26; for TV (mm^3) at D26 (Mean ± SEM): Table 9, MC38, 2 μmol/kg S.C. QD
Method: as §1, with “C57BL/6-Ces1c^emISmoc;” for “C57BL/6;”, “female. (Shanghai Model Organisms).” for “female.”, “1×10^6” for “1×10^6 cells”
The treatments were started when the mean tumor size reached 52-132 mm^3 (average tumor size 95 mm^3). Each group contained 5 tumor bearing mice. Group 1 was treated with Vehicle (10% DMSO+90% Saline), S.C., QD(Subcutaneous injection, quaque die).
as §2, §3

[4] = Stability in liver microsomes, mouse; assay type: in vitro ADME; settings: 60 minutes, read-out: In vitro Clint
Method: For metabolic stability, microsomes from human, monkey, dog, rat and mouse were used. For stability, prodrugs (1 μM) were spiked in each microsomes matrix and incubated in an orbital shaker at 37° C. Aliquots of 50 μL were taken from the reaction solution at 0, 15, 30, 45 and 60 min. The reaction was stopped by the addition of 4 volumes of cold acetonitrile with IS (100 nM alprazolam, 200 nM labetalol, 200 nM caffeine and 2 μM ketoprofen). Samples were centrifuged at 3, 220 g for 40 minutes. Aliquot of 100 μL of the supernatant was mixed with 100 μL of ultra-pure H2O and then used for LC-MS/MS analysis.
For LC-MS/MS, prodrugs were analyzed on an API 4000 instrument from AB Inc (Canada) with an ESI interface coupled to Shimadzu LC system on an Waters XSelect HSS T3 C18, 2.5 m, 2.1×30 mm column.
For data analysis, peak areas were determined from extracted ion chromatograms. The slope value, k, was determined by linear regression of the natural logarithm of the remaining percentage of the parent drug vs. incubation time curve. The in vitro half-life (in vitro t1/2) was determined from the slope value: in vitro t1/2=−(0.693/k)
Conversion of the in vitro t1/2 (min) into the in vitro intrinsic clearance (in vitro CLint, in μL/min/mg protein) was done using the following equation (mean of duplicate determinations): […]

[5] = Plasma stability, swine plasma; settings: 1 μM, 37° C., 4 hours
Method: For metabolic stability, plasma from dog, monkey, swine and human were used. For stability, prodrugs (1 μM) were spiked in respective solutions and incubated in an orbital shaker at 37° C. 50 μL aliquots of the mixture in duplicate were removed, and the reaction quenched by addition of four times the volume of ice cold acetonitrile spiked with the internal standard (Dexamethasone 100 ng/mL). […] 100 μL of the supernatant was diluted with 100 μL of water and transferred to the 0.6 mL plastic tubes on 96-well plate. Prodrug disappearance was monitored over time using a liquid chromatography and tandem mass spectrometry (LC-MS/MS).
For LC-MS/MS, prodrugs were analyzed on a ExionLC AD HPLC system coupled to REF Triple Quad 5500+ mass spectrometer with an ESI interface on an Phenomenex Kinetex 5 m C18 100A (2.1*50) mm UPLC column. The autosampler was temperature controlled and was operated at 4° C. The mobile phase used for the chromatographic separation was composed of acetonitrile/water containing 0.10% formic acid and will run at a flow rate of 0.6 mL/min for 3.5 min using gradient elution. The column effluent was monitored using […], equipped with an electrospray probe set in the positive ionization mode. Samples were introduced into the ionization source through a heated nebulized probe (400° C.). Disappearance of prodrugs will be measured from ratio of peak areas of analyte to IS.
For quantification of compound remaining, disappearance of prodrugs was measured from ratio of peak areas of analyte to IS.

[6] = Solubility in water, remark in the synthesis example; assay type: physicochemical; settings: remark on the isolated product

Compound	TV (mm^3) (Mean ± SEM) D6 [3]	TV (mm^3) (Mean ± SEM) D9 [3]	TV (mm^3) (Mean ± SEM) D12 [3]	TV (mm^3) (Mean ± SEM) D15 [3]	TV (mm^3) (Mean ± SEM) D20 [3]	TV (mm^3) (Mean ± SEM) D23 [3]	T/C (%) [3] [%]	TGI (%) [3] [%]	TV (mm^3) (Mean ± SEM) D26 [3]	TV (mm^3) at D26 (Mean ± SEM) [3] [mm^3]	microsomal CLint at 1 μM [4] [µL/min/mg]	plasma stability (compound remaining) [5]	further results
CO[C@@H](C)C(=O)N[C@@H](CCC(=O)C=[N+]=[N-])C(=O)OC(C)C [Compound 2, isopropyl (S)-6-diazo-2-((S)-2-methoxypropanamido)-5-oxohexanoate]	95 ± 11	193 ± 20	103 ± 15	131 ± 21	169 ± 19	219 ± 21	14.0	86.0	313 ± 35	313 ± 35	67.1	substantially intact	T/C (%) ([1]; Example 11): 17.5%; TGI (%) ([1]; Example 11): 82.5%; TV (mm^3) (Mean ± SEM) D6 ([1]; Example 11, D6): 102 ± 7 mm^3; TV (mm^3) (Mean ± SEM) D10 ([1]; Example 11, D10): 167 ± 17 mm^3; TV (mm^3) (Mean ± SEM) D13 ([1]; Example 11, D13): 257 ± 51 mm^3; TV (mm^3) (Mean ± SEM) D17 ([1]; Example 11, D17): 306 ± 43 mm^3; TV (mm^3) (Mean ± SEM) D20 ([1]; Example 11, D20): 407 ± 33 mm^3; TV (mm^3) at D21 (Mean ± SEM) ([1]; Table 13, D21): 407 ± 33 mm^3; BW(g) (Mean ± SEM) Beginning (D6) ([2]; D6): 19.8 ± 0.2 g; BW Change (%) ([2]; D6 to D20): +6.4%; BW(g) (Mean ± SEM) End (D20) ([2]; D20): 21.1 ± 0.3 g; solubility in water [6]: easily dissolved in water
CC(=O)N[C@@H](Cc1c[nH]c2ccccc12)C(=O)N[C@@H](CCC(=O)C=[N+]=[N-])C(=O)OC(C)C [Reference compound A, reference compound]	95 ± 6	275 ± 33	147 ± 5	195 ± 23	196 ± 33	183 ± 33	12.3	87.7	274 ± 81	274 ± 81	153	substantially intact	–

From patent US12577201B2, “Glutamine analogs” (Jacobio Pharmaceuticals Co., Ltd., priority 2020, dated 2026)
